Here are results for 25 molecules from US11649237B2, “Substituted imidazo[1,5-a]pyrazines for IRE1 inhibition” (Optikira LLC, priority 2017, dated 2023).

The IC50 is the concentration that inhibits the measured activity by half. The low end stands for greater potency, the high end for weaker potency.

In the experiment the test system is XBP-1 splicing in ARPE-19 cells or apoptosis of INS-1 cells expressing mIRE-1. Kind of experiment: Cellular assay (XBP1 splicing assay or apoptosis assay). In kind it is cell-based. The settings on record: data are for the XBP1 splicing assay or the apoptosis assay (not specified per compound). As to the method:
ARPE-19 cells stably expressing XBP-1 (a.a. 1-376) with nano-luciferase gene sequence linked so it is in frame when XBP-1 is spliced, were cultured in F12 media, 10% FBS, 0.044% sodium bicarbonate, 150 μg/ml hygromycin B and seeded for assays at 5,000 cells in 384 well plates in culture media without hygromycin B and incubated at 37° C./5% CO2. […] After further incubation of 30 minutes thapsigargin was added (final concentration 150 nM) and then another 4 hour incubation. A NanoLuc luciferase assay (Promega) was used according to the manufacturer's instructions to detect the luciferase and luminescence measured on a luminometer (EnVision, PerkinElmer).
Doxycycline (final concentration 100 nM) was added and plates incubated for a further 72 hours. To determine the proportion of apoptotic cells Hoechst 33342 (final concentration 10 μg/mL) was added, then after 30 minutes incubation cells imaged and analyzed on an InCell high content imager.
For `CNC1CC=C(c2cnc(N)c3c(-c4ccc(NC(=O)Nc5cccc(OC)c5)c5ccccc45)nc(C(C)C)n23)CC1` (stereo not shown) [Example 141, 1-(4-(8-amino-3-isopropyl-5-(4-(methylamino)cyclohex-1-en-1-yl)imidazo[1,5-a]pyrazin-1-yl)naphthalen-1-yl)-3-(3-methoxyphenyl)urea], the IC50 was determined as 59 nM.
On to `CNC1CC=C(c2cnc(N)c3c(-c4ccc(NC(=O)Nc5cccc(C#N)c5)c5ccccc45)nc(C(C)C)n23)CC1` (stereo not shown) [Example 142, 1-(4-(8-amino-3-isopropyl-5-(4-(methylamino)cyclohex-1-en-1-yl)imidazo[1,5-a]pyrazin-1-yl)naphthalen-1-yl)-3-(3-cyanophenyl)urea], for which inhibition was half-maximal at 94 nM (IC50).
Under `CNC1CC=C(c2cnc(N)c3c(-c4ccc(NC(=O)Nc5ccc(OC)c(OC)c5)c5ccccc45)nc(C(C)C)n23)CC1` (stereo not shown) [Example 143, 1-(4-(8-amino-3-isopropyl-5-(4-(methylamino)cyclohex-1-en-1-yl)imidazo[1,5-a]pyrazin-1-yl)naphthalen-1-yl)-3-(3,4-dimethoxyphenyl)urea] stands 210 nM.
Under `CNC1CC=C(c2cnc(N)c3c(-c4ccc(NC(=O)Nc5ccncc5)c5ccccc45)nc(C(C)C)n23)CC1` (stereo not shown) [Example 144, 1-(4-(8-amino-3-isopropyl-5-(4-(methylamino)cyclohex-1-en-1-yl)imidazo[1,5-a]pyrazin-1-yl)naphthalen-1-yl)-3-(pyridin-4-yl)urea] stands 490 nM.
The result for `CNC1CC=C(c2cnc(N)c3c(-c4ccc(NC(=O)Nc5ccc(F)cc5)c5ccccc45)nc(C(C)C)n23)CC1` (stereo not shown) [Example 145, 1-(4-(8-amino-3-isopropyl-5-(4-(methylamino)cyclohex-1-en-1-yl)imidazo[1,5-a]pyrazin-1-yl)naphthalen-1-yl)-3-(4-fluorophenyl)urea] reads 74 nM; that for `CNC1CC=C(c2cnc(N)c3c(-c4ccc(NC(=O)Nc5cc(F)cc(OC)c5)cc4F)nc(C(C)C)n23)CC1` (stereo not shown) [Example 146, 1-(4-(8-amino-3-isopropyl-5-(4-(methylamino)cyclohex-1-en-1-yl)imidazo[1,5-a]pyrazin-1-yl)-3-fluorophenyl)-3-(3-fluoro-5-methoxyphenyl)urea], 240 nM; that for `CNC1CC=C(c2cnc(N)c3c(-c4ccc(NC(=O)Nc5cccnc5)c5ccccc45)nc(C)n23)CC1` (stereo not shown) [Example 147, 1-(4-(8-amino-3-methyl-5-(4-(methylamino)cyclohex-1-en-1-yl)imidazo[1,5-a]pyrazin-1-yl)naphthalen-1-yl)-3-(pyridin-3-yl)urea], 3100 nM.
As to `CNC1CC=C(c2cnc(N)c3c(-c4ccc(NC(=O)Nc5cncc(OC)c5)cc4F)nc(C(C)C)n23)CC1` (stereo not shown) [Example 148, 1-(4-(8-amino-3-isopropyl-5-(4-(methylamino)cyclohex-1-en-1-yl)imidazo[1,5-a]pyrazin-1-yl)-3-fluorophenyl)-3-(5-methoxypyridin-3-yl)urea], inhibition was half-maximal at 1300 nM (IC50).
The result for `CNC1CC=C(c2cnc(N)c3c(-c4ccc(NC(=O)Nc5cncc(F)c5)cc4F)nc(C(C)C)n23)CC1` (stereo not shown) [Example 149, 1-(4-(8-amino-3-isopropyl-5-(4-(methylamino)cyclohex-1-en-1-yl)imidazo[1,5-a]pyrazin-1-yl)-3-fluorophenyl)-3-(5-fluoropyridin-3-yl)urea] reads 780 nM; that for `CNC1CC=C(c2cnc(N)c3c(-c4ccc(NC(=O)Nc5ccsc5)c5ccccc45)nc(C(C)C)n23)CC1` (stereo not shown) [Example 150, 1-(4-(8-amino-3-isopropyl-5-(4-(methylamino)cyclohex-1-en-1-yl)imidazo[1,5-a]pyrazin-1-yl)naphthalen-1-yl)-3-(thiophen-3-yl)urea], 90 nM; that for `CNC1CC=C(c2cnc(N)c3c(-c4ccc(NC(=O)Nc5cc(F)cc(F)c5)c5ccccc45)nc(C(C)C)n23)CC1` (stereo not shown) [Example 151, 1-(4-(8-amino-3-isopropyl-5-(4-(methylamino)cyclohex-1-en-1-yl)imidazo[1,5-a]pyrazin-1-yl)naphthalen-1-yl)-3-(3,5-difluorophenyl)urea], 60 nM.
For the molecule `CNC1CC=C(c2cnc(N)c3c(-c4ccc(NC(=O)Nc5ccccc5F)c5ccccc45)nc(C(C)C)n23)CC1` (stereo not shown) [Example 152, 1-(4-(8-amino-3-isopropyl-5-(4-(methylamino)cyclohex-1-en-1-yl)imidazo[1,5-a]pyrazin-1-yl)naphthalen-1-yl)-3-(2-fluorophenyl)urea], it took 100 nM to reach half-maximal inhibition (IC50).
The result for `CNC1CC=C(c2cncc3c(-c4ccc(NC(=O)Nc5ccccc5)c5ccccc45)nc(C(C)C)n23)CC1` (stereo not shown) [Example 155, 1-(4-(3-isopropyl-5-(4-(methylamino)cyclohex-1-en-1-yl)imidazo[1,5-a]pyrazin-1-yl)naphthalen-1-yl)-3-phenylurea] reads 640 nM.
Consider `CNC1CC=C(c2cnc(N)c3c(-c4ccc(Cc5nc6cccc(C)c6[nH]5)c5ccccc45)nc(C(C)C)n23)CC1` (stereo not shown) [Example 156, 3-Isopropyl-1-(4-((7-methyl-1H-benzo[d]imidazol-2-yl)methyl)naphthalen-1-yl)-5-(4-(methylamino)cyclohex-1-en-1-yl)imidazo[1,5-a]pyrazin-8-amine], for which the IC50 came to 16 nM.
The result for `CNC1CC=C(c2cnc(N)c3c(-c4ccc(Cc5ncc(-c6ccccc6)[nH]5)c5ccccc45)nc(C(C)C)n23)CC1` (stereo not shown) [Example 168, 3-Isopropyl-5-(4-(methylamino)cyclohex-1-en-1-yl)-1-(4-((5-phenyl-1H-imidazol-2-yl)methyl)naphthalen-1-yl)imidazo[1,5-a]pyrazin-8-amine] reads 96 nM; that for `CNC1CC=C(c2cnc(N)c3c(-c4ccc(NS(=O)(=O)Cc5ccccc5Cl)c(F)c4)nc(C(C)C)n23)CC1` (stereo not shown) [Example 169, N-(4-(8-Amino-3-isopropyl-5-(4-(methylamino)cyclohex-1-en-1-yl)imidazo[1,5-a]pyrazin-1-yl)-2-fluorophenyl)-1-(2-chlorophenyl)methanesulfonamide], 31 nM.
The result for `CNC1CC=C(c2cnc(N)c3c(-c4ccc(NS(=O)(=O)c5cc(C)ccc5F)c5ccccc45)nc(C(C)C)n23)CC1` (stereo not shown) [Example 185, N-(4-(8-amino-3-isopropyl-5-(4-(methylamino)cyclohex-1-en-1-yl)imidazo[1,5-a]pyrazin-1-yl)naphthalen-1-yl)-2-fluoro-5-methylbenzenesulfonamide] reads 210 nM; that for `CNC1CC=C(c2cnc(N)c3c(-c4ccc(NS(=O)(=O)c5cc(Cl)ccc5Cl)cc4F)nc(C(C)C)n23)CC1` (stereo not shown) [Example 195, N-(4-(8-amino-3-isopropyl-5-(4-(methylamino)cyclohex-1-en-1-yl)imidazo[1,5-a]pyrazin-1-yl)-3-fluorophenyl)-2,5-dichlorobenzenesulfonamide], 66 nM; that for `CNC1CC=C(c2cnc(N)c3c(-c4ccc(NS(=O)(=O)c5cc(C)ccc5F)c(F)c4)nc(C(C)C)n23)CC1` (stereo not shown) [Example 218, N-(4-{8-amino-5-[4-(methylamino)cyclohex-1-en-1-yl]-3-(propan-2-yl)imidazo[1,5-a]pyrazin-1-yl}-2-fluorophenyl)-2-fluoro-5-methylbenzene-1-sulfonamide], 25 nM.
The result for `CNC1CC=C(c2cnc(N)c3c(-c4ccc(NS(=O)(=O)c5cc(C)ccc5Cl)c5ccccc45)nc(C(C)C)n23)CC1` (stereo not shown) [Example 219, N-(4-{8-amino-5-[4-(methylamino)cyclohex-1-en-1-yl]-3-(propan-2-yl)imidazo[1,5-a]pyrazin-1-yl}naphthalen-1-yl)-2-chloro-5-methylbenzene-1-sulfonamide] reads 20 nM; that for `CC(C)c1nc(-c2ccc(NS(=O)(=O)Cc3ccccc3Cl)c(F)c2)c2c(N)ncc(C3=CCC(NCCF)CC3)n12` (stereo not shown) [Example 220, N-(4-(8-amino-5-(4-((2-fluoroethyl)amino)cyclohex-1-en-1-yl)-3-isopropylimidazo[1,5-a]pyrazin-1-yl)-2-fluorophenyl)-1-(2-chlorophenyl) methanesulfonamide], 50 nM.
The molecule `CC(C)c1nc(-c2ccc(NS(=O)(=O)Cc3ccccc3Cl)c(F)c2)c2c(N)ncc(C3=CCC(O)CC3)n12` (stereo not shown) [Example 224, N-(4-(8-amino-5-(4-hydroxycyclohex-1-en-1-yl)-3-isopropylimidazo[1,5-a]pyrazin-1-yl)-2-fluorophenyl)-1-(2-chlorophenyl)methanesulfonamide] showed a 50% inhibitory concentration (IC50) of 42 nM.
Under `CC(C)c1nc(-c2ccc(NS(=O)(=O)c3ccccc3Cl)c(F)c2)c2c(N)ncc(C3=CCC(O)CC3)n12` (stereo not shown) [Example 225, N-(4-(8-amino-5-(4-hydroxycyclohex-1-en-1-yl)-3-isopropylimidazo[1,5-a]pyrazin-1-yl)-2-fluorophenyl)-2-chlorobenzenesulfonamide] stands 250 nM; under `CC(C)c1nc(-c2ccc(NS(=O)(=O)Cc3ccccc3Cl)c(F)c2)c2c(N)ncc(C3=CCC(NC4COC4)CC3)n12` (stereo not shown) [Example 227, N-(4-(8-amino-3-isopropyl-5-(4-(oxetan-3-ylamino)cyclohex-1-en-1-yl)imidazo[1,5-a]pyrazin-1-yl)-2-fluorophenyl)-1-(2-chlorophenyl)methanesulfonamide], 87 nM; under `CC(C)c1nc(-c2ccc(NS(=O)(=O)c3ccccc3Cl)c(F)c2)c2c(N)ncc(C3=CCC(N(C)CCF)CC3)n12` (stereo not shown) [Example 230, N-(4-(8-amino-5-(4-((2-fluoroethyl)(methyl)amino)cyclohex-1-en-1-yl)-3-isopropylimidazo[1,5-a]pyrazin-1-yl)-2-fluorophenyl)-2-chlorobenzenesulfonamide], 19 nM.
